Results from ChEMBL document CHEMBL1201862, “PubChem BioAssay data set” (2004).
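Dose response: 5 concentrations. Exposure: 48 h. Format: 96-well plates. Endpoint: linear interpolation; highest concentration if not reached. GI50 = concentration required for 50% inhibition of growth.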 Activity calls are given as the source filed them. Rule as the data show it: active = GI50 up to about 1.1 µM and inactive = higher.

Columns and labels:
Experiment in all cases: growth of human tumour cells (NCI), 48 h
OVCAR-4 = system: OVCAR-4
SF-268 = system: SF-268
IGROV-1 = system: IGROV-1
A498 = system: A498
HOP-62 = system: HOP-62
HL-60 = system: HL-60
SK-MEL-28 = system: SK-MEL-28
OVCAR-8 = system: OVCAR-8
CCRF-CEM = system: CCRF-CEM
LOX IMVI = system: LOX IMVI
NCI-H23 = system: NCI-H23
T47D = system: T47D
Hs-578T = system: Hs-578T
MDA-MB-435 = system: MDA-MB-435
OVCAR-3 = system: OVCAR-3
KM12 = system: KM12
UACC-62 = system: UACC-62
COLO 205 = system: COLO 205
SN12C = system: SN12C
A549 = system: A549

Compound	GI50 (OVCAR-4)	GI50 (SF-268)	GI50 (IGROV-1)	GI50 (A498)	GI50 (HOP-62)	GI50 (HL-60)	GI50 (SK-MEL-28)	GI50 (OVCAR-8)	GI50 (CCRF-CEM)	GI50 (LOX IMVI)	GI50 (NCI-H23)	GI50 (T47D)	GI50 (Hs-578T)	GI50 (MDA-MB-435)	GI50 (OVCAR-3)	GI50 (KM12)	GI50 (UACC-62)	GI50 (COLO 205)	GI50 (SN12C)	GI50 (A549)
Cc1cc(S(=O)(=O)[N-]/C(=N/S(=O)(=O)c2cc(Cl)sc2Cl)[n+]2ccc(N(C)C)cc2)c(S)cc1Cl	37.2 µM (inactive)	40.1 µM (inactive)	> 100 µM (inactive)	26.7 µM (inactive)	42.3 µM (inactive)	> 100 µM (inactive)	84.9 µM (inactive)	40.8 µM (inactive)	64 µM (inactive)	> 100 µM (inactive)	34.9 µM (inactive)	> 100 µM (inactive)	40.4 µM (inactive)	62.1 µM (inactive)	96.6 µM (inactive)	> 100 µM (inactive)	–	–	–	–
S=C1NC2=C(COc3ccccc32)C(c2ccc(Cl)cc2)N1 (stereo not drawn)	–	17.6 µM (inactive)	16.6 µM (inactive)	18.1 µM (inactive)	17.1 µM (inactive)	13.9 µM (inactive)	21.9 µM (inactive)	21.6 µM (inactive)	21.3 µM (inactive)	16.3 µM (inactive)	21.7 µM (inactive)	18.2 µM (inactive)	21.6 µM (inactive)	24 µM (inactive)	15.3 µM (inactive)	16.2 µM (inactive)	17.4 µM (inactive)	18.7 µM (inactive)	2.54 µM (inactive)	20.2 µM (inactive)
COc1cc(C(C)=O)cc(C(=O)N(C(C)C)C(C)C)c1[Si](C)(C)C	> 100 µM (inactive)	> 100 µM (inactive)	> 100 µM (inactive)	> 100 µM (inactive)	> 100 µM (inactive)	24.3 µM (inactive)	> 100 µM (inactive)	> 100 µM (inactive)	> 100 µM (inactive)	> 100 µM (inactive)	52.8 µM (inactive)	> 100 µM (inactive)	> 100 µM (inactive)	> 100 µM (inactive)	> 100 µM (inactive)	> 100 µM (inactive)	> 100 µM (inactive)	> 100 µM (inactive)	–	67.8 µM (inactive)
CC(C)(C)c1cc(C(C)(C)C)c(SSc2c(C(C)(C)C)cc(C(C)(C)C)c(O)c2O)c(O)c1O	3.55 µM (inactive)	10.1 µM (inactive)	12 µM (inactive)	14 µM (inactive)	–	3.46 µM (inactive)	16.3 µM (inactive)	12.3 µM (inactive)	2.5 µM (inactive)	9.64 µM (inactive)	10.3 µM (inactive)	4.32 µM (inactive)	10.5 µM (inactive)	4.3 µM (inactive)	–	12.6 µM (inactive)	5.7 µM (inactive)	11.5 µM (inactive)	10.9 µM (inactive)	6.75 µM (inactive)
CC1CC(C)CC(C)C(O)/C(C#N)=C/C=C/CC(C2CCCC2C(=O)O)OC(=O)CC(O)C(C)C1 (stereo not drawn)	0.0424 µM (active)	0.0133 µM (active)	< 0.0118 µM (active)	0.0105 µM (active)	0.0148 µM (active)	0.0137 µM (active)	< 0.0111 µM (active)	0.0192 µM (active)	0.0118 µM (active)	< 0.0109 µM (active)	–	< 0.01 µM (active)	< 0.01 µM (active)	< 0.01 µM (active)	–	–	0.0101 µM (active)	0.0225 µM (active)	0.029 µM (active)	0.053 µM (active)
O=C(O)c1c(CC(Cc2ccc3c(c2)CCCC3)C(=O)O)ccc2c1CCCC2 (stereo not drawn)	–	> 100 µM (inactive)	> 100 µM (inactive)	> 100 µM (inactive)	> 100 µM (inactive)	> 100 µM (inactive)	> 100 µM (inactive)	> 100 µM (inactive)	> 100 µM (inactive)	> 100 µM (inactive)	> 100 µM (inactive)	> 100 µM (inactive)	> 100 µM (inactive)	> 100 µM (inactive)	> 100 µM (inactive)	> 100 µM (inactive)	> 100 µM (inactive)	> 100 µM (inactive)	> 100 µM (inactive)	> 100 µM (inactive)
